Here are results for six compounds from ChEMBL document CHEMBL1133525, “A selenopyrylium photosensitizer for photodynamic therapy related in structure to the antitumor agent AA1 with potent in vivo activity and no long-term skin photosensitization” (J Med Chem, 2000).

SMILES strings stand for the structures.

The nature of the data set: Partition coefficient (logP). The class given is physicochemical. Particulars: octanol/water.
The compound `CN(C)c1ccc(-c2cc(-c3ccccc3)[se+]c(-c3ccc(N(C)C)cc3)c2)cc1` showed a logP of 2.4.

`CN(C)c1ccc(-c2cc(-c3ccccc3)[te+]c(-c3ccc(N)cc3)c2)cc1`: the logP came out at 0.5.

Turning to `CN(C)c1ccc(-c2cc(-c3ccccc3)[se+]c(-c3ccc(N)cc3)c2)cc1`, the logP amounted to 0.8.

The compound `CN(C)c1ccc(-c2cc(-c3ccccc3)[s+]c(-c3ccc(N(C)C)cc3)c2)cc1` gave a logP of 2.5.

With `CN(C)c1ccc(-c2cc(-c3ccccc3)[s+]c(-c3ccc(N)cc3)c2)cc1`, the logP turned out to be 0.

Regarding `CN(C)c1ccc(-c2cc(-c3ccccc3)[te+]c(-c3ccc(N(C)C)cc3)c2)cc1`, the log partition coefficient (logP) stood at 2.5.

By logP is commonly meant a log measure of how a compound divides between an organic and an aqueous phase. Read a high logP as higher lipophilicity.
